In patent US4339535A, “Process for preparing antibiotic EM 4940” (E. R. Squibb & Sons, Inc., priority 1980, dated 1982):
Values after ≈ are worked out from the molar mass of the structure shown. Where two headings read alike, the source gives them in different places.

Tests used:
Enterobacter cloacae = test: MIC aerobic screen, BA-2 agar; details: Enterobacter cloacae, strain 10,459
T. rubrum = test: MIC against dermatophytes; type: cell-based; details: Trichophyton rubrum; Table VI; strain 9199; 26° C., 48 hours; read-out: Minimum Inhibitory Concentration
Escherichia coli = test: MIC aerobic screen, H-59 synthetic agar
Pseudomonas aeruginosa = test: MIC aerobic screen, BA-2 agar; details: Pseudomonas aeruginosa
[1] = system: Peptostreptococcus anaerobius; test: MIC anaerobic screen; type: cell-based; details: Table IV, strain 11,263, read-out: Minimum Inhibitory Concentration
Proteus rettgeri = test: MIC aerobic screen, BA-2 agar; details: Providencia rettgeri, read-out: Minimum Inhibitory Concentration
Klebsiella aerogenes = test: MIC aerobic screen, H-59 synthetic agar; details: read-out: Minimum Inhibitory Concentration
[2] = system: Acinetobacter calcoaceticus; test: MIC aerobic screen, H-59 synthetic agar; details: read-out: Minimum Inhibitory Concentration
Streptococcus faecalis = test: MIC aerobic screen, H-59 synthetic agar; details: Enterococcus faecalis, read-out: Minimum Inhibitory Concentration
T. mentagrophytes = test: MIC against dermatophytes; type: cell-based; details: Trichophyton mentagrophytes; Table VI; strain 2637; 26° C., 48 hours; read-out: Minimum Inhibitory Concentration
Clostridium perfringens = test: microbe, parasite or virus in culture; type: cell-based; details: read-out: Minimum Inhibitory Concentration
Hemophilus vaginalis = test: MIC anaerobic screen; type: cell-based; details: Table IV
Shigella sonnei = test: MIC aerobic screen, H-59 synthetic agar; type: cell-based; details: Table III, H-59 agar, strain 8449, read-out: Minimum Inhibitory Concentration
Text: (A) Using H-59 Synthetic Agar

Staphylococcus aureus = test: MIC aerobic screen, BA-2 agar; details: Staphylococcus aureus
Candida albicans = test: MIC against Candida albicans (broth tube dilution); type: cell-based; details: Table V, strain 5314, read-out: Minimum Inhibitory Concentration
Salmonella typhimurium = test: MIC aerobic screen, H-59 synthetic agar; details: Salmonella enterica, read-out: Minimum Inhibitory Concentration
Serratia marcescens = test: MIC aerobic screen, BA-2 agar; details: Serratia marcescens

CC1(O)CC(C(N)=O)N=C1c1ncccc1O (stereo not drawn) [EM4940A, 2,4-trans-3,4-dihydro-4-hydroxy-5-(3-hydroxy-2-pyridinyl)-4-methyl-2H-pyrrole-2-carboxamide]
MIC (Enterobacter cloacae; read-out: Minimum Inhibitory Concentration, Table I, BA-2 agar): > 100 µg/mL | MIC (Enterobacter cloacae; read-out: Minimum Inhibitory Concentration, Table II, additional tests): 50 µg/mL (≈ 213 µM) | MIC (T. rubrum): 50 µg/mL (≈ 213 µM) | MIC (Escherichia coli; read-out: Minimum Inhibitory Concentration, Table III, H-59 agar, strain 10,404): 50 µg/mL (≈ 213 µM) | MIC (Escherichia coli; read-out: Minimum Inhibitory Concentration, Table III, H-59 agar, strain 10,857): 25 µg/mL (≈ 106 µM) | MIC (Pseudomonas aeruginosa; read-out: Minimum Inhibitory Concentration, Table I, BA-2 agar, strain 8754): > 100 µg/mL | MIC (Pseudomonas aeruginosa; read-out: Minimum Inhibitory Concentration, Table I, BA-2 agar, strain 9330): 50 µg/mL (≈ 213 µM) | MIC (Pseudomonas aeruginosa; read-out: Minimum Inhibitory Concentration, Table I, BA-2 agar, strain 9545): 25 µg/mL (≈ 106 µM) | MIC (Pseudomonas aeruginosa; read-out: Minimum Inhibitory Concentration, Table II, additional tests, strain 8754): 100 µg/mL (≈ 425 µM) | MIC (Pseudomonas aeruginosa; read-out: Minimum Inhibitory Concentration, Table II, additional tests, strain 9330): > 200 µg/mL | MIC (Pseudomonas aeruginosa; read-out: Minimum Inhibitory Concentration, Table II, additional tests, strain 9545): 12.5 µg/mL (≈ 53.1 µM) | MIC [1]: 50 µg/mL (≈ 213 µM) | MIC (Proteus rettgeri): 50 µg/mL (≈ 213 µM) | MIC (Klebsiella aerogenes): 50 µg/mL (≈ 213 µM) | MIC [2]: 25 µg/mL (≈ 106 µM) | MIC (Streptococcus faecalis): > 100 µg/mL | MIC (T. mentagrophytes): > 100 µg/mL | MIC (Clostridium perfringens): 50 µg/mL (≈ 213 µM) | MIC (Hemophilus vaginalis; strain 8568, read-out: Minimum Inhibitory Concentration): 100 µg/mL (≈ 425 µM) | Minimum Inhibitory Concentration (Hemophilus vaginalis; strain 9640): 100.00 µg/mL | MIC (Shigella sonnei): 50 µg/mL (≈ 213 µM) | MIC (Staphylococcus aureus; read-out: Minimum Inhibitory Concentration, Table I, BA-2 agar, strain 2400): > 100 µg/mL | MIC (Staphylococcus aureus; read-out: Minimum Inhibitory Concentration, Table I, BA-2 agar, strain 10,165): 50 µg/mL (≈ 213 µM) | MIC (Staphylococcus aureus; read-out: Minimum Inhibitory Concentration, Table I, BA-2 agar, strain 11,239): > 100 µg/mL | MIC (Staphylococcus aureus; read-out: Minimum Inhibitory Concentration, Table II, additional tests, strain 2400): > 200 µg/mL | MIC (Staphylococcus aureus; read-out: Minimum Inhibitory Concentration, Table II, additional tests, strain 2661): > 200 µg/mL | MIC (Staphylococcus aureus; read-out: Minimum Inhibitory Concentration, Table II, additional tests, strain 10,165): 100 µg/mL (≈ 425 µM) | MIC (Staphylococcus aureus; read-out: Minimum Inhibitory Concentration, Table II, additional tests, strain 11,239): 50 µg/mL (≈ 213 µM) | MIC (Candida albicans; Candida albicans, Medium: F4): > 100 µg/mL | MIC (Candida albicans; Medium: Yeast Nitrogen Base + Glucose): > 100 µg/mL | MIC (Salmonella typhimurium): 50 µg/mL (≈ 213 µM) | MIC (Serratia marcescens; read-out: Minimum Inhibitory Concentration, Table I, BA-2 agar, strain 1111): > 100 µg/mL | MIC (Serratia marcescens; read-out: Minimum Inhibitory Concentration, Table I, BA-2 agar, strain 9782): 100 µg/mL (≈ 425 µM) | MIC (Serratia marcescens; read-out: Minimum Inhibitory Concentration, Table II, additional tests, strain 9782): 50 µg/mL (≈ 213 µM) | MIC (Serratia marcescens; read-out: Minimum Inhibitory Concentration, Table II, additional tests, strain 11,111): 100 µg/mL (≈ 425 µM)
